Experiments:
FGFR1-BCR Ba/F3 cells = FGFR1-BCR Ba/F3 cells (Homo sapiens, UniProt P11362); experiment: Ba/F3 cell viability assay (CellTiter-Glo 2.0), FGFR1-BCR Ba/F3; assay type: cell-based; conditions: read-out: Ba/F3 Cells FGFR1 (IC50 nM), 48 hours, Cell Titer Glo 2.0
Text: (§1) Experimental Purpose: Recombinant kinase fusions are transduced into parental Ba/F3, which becomes dependent upon this constitutive kinase activity for IL3-independent survival. Inhibition of kinase activity leads to cell death, which is monitored using CellTiter-Glo® 2.0 (Promega) which measures intracellular ATP concentration that in turn serves as a marker for viability. FGFR1-BCR Ba/F3 and FGFR3-BAIAP2L1 Ba/F3 were obtained from Advanced Cellular Dynamics (Seattle, WA)
(§2) Cell Viability Assay Procedure: Cell Titer-Glo® 2.0 Luminescent cell viability assay reagent was purchased from Promega (Madison, WI). FGFR1-BCR Ba/F3 and FGFR3-BAIAP2L1 Ba/F3 cells were cultured in RPMI1640 media supplemented with 10% fetal bovine serum. Cultures were maintained at 37° C. in a humidified atmosphere of 5% C02 and 95% air.
(§3) Cells were plated in 96-well clear bottom/white plates (Corning #3903) at 10,000 cells/well in 100 μl of media, incubated overnight. The next day, test compound DMSO stock solutions were made at 10 mM and 2 μM final concentration. Compounds were then added to cells in a 9-dose, 10-fold dilution series starting at 30 μM with an HP 300e Digital Dispenser (each dose was applied in triplicate). DMSO was backfilled to each well up to 301 nL total volume of test compound+DMSO, and a total of 301 nL DMSO was added to a control/no test compound well in triplicate. The cells in cell culture plates were incubated with the compounds at 37° C. and 5% C02 for 48 hours. Then 50 μl of Cell Titer Glo 2.0 reagent was added to each well of the cell culture plates. The contents were covered from light and mixed on an orbital shaker at room temperature for 10 min. Luminescence was recorded by a Synergy H1 Microplate Reader (Biotek, Winooski, VT). Cells were assessed as a percentage of DMSO only treated control cells. Curves were plotted and IC50 values were calculated using the GraphPad Prism 8 program based on a sigmoidal dose-response equation (4 parameter).

FGFR2 = FGFR2 (Homo sapiens (Human), UniProt P21802); experiment: Kinase assay, binding constants (Kd), kinase-tagged T7 phage, qPCR
Sequence of FGFR2 (P21802 22-821): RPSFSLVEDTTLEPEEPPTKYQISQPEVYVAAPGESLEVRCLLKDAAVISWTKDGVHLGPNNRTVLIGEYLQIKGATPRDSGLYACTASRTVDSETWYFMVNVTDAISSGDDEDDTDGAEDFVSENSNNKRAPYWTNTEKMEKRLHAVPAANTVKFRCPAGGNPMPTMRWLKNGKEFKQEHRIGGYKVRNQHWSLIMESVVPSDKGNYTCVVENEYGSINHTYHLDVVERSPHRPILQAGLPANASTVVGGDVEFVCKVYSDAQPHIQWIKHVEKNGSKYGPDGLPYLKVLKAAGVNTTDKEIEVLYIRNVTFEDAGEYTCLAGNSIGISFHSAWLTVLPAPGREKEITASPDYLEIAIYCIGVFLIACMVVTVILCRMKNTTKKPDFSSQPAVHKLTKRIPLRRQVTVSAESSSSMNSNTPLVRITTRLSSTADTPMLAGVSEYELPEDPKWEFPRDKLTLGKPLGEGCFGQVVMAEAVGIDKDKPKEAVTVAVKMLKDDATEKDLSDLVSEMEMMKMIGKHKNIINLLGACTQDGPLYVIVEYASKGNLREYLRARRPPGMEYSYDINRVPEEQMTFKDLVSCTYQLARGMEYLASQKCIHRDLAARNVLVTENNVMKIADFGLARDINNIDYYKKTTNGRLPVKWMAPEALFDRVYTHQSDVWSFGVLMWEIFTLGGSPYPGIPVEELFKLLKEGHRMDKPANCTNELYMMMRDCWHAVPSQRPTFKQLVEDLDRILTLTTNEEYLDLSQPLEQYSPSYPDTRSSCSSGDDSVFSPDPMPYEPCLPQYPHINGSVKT
Outline: (§4)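 Using T7 phage lysates from BL21-derived E. coli, compounds at 0.9% final DMSO competed for kinase binding to ligand-bearing magnetic beads. After elution, qPCR measured remaining kinase, and Kds were fitted by non-linear least squares with the Hill slope fixed at −1.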

FGFR3 = FGFR3 (Homo sapiens (Human), UniProt P22607); experiment: as above
Sequence of FGFR3 (P22607 23-806): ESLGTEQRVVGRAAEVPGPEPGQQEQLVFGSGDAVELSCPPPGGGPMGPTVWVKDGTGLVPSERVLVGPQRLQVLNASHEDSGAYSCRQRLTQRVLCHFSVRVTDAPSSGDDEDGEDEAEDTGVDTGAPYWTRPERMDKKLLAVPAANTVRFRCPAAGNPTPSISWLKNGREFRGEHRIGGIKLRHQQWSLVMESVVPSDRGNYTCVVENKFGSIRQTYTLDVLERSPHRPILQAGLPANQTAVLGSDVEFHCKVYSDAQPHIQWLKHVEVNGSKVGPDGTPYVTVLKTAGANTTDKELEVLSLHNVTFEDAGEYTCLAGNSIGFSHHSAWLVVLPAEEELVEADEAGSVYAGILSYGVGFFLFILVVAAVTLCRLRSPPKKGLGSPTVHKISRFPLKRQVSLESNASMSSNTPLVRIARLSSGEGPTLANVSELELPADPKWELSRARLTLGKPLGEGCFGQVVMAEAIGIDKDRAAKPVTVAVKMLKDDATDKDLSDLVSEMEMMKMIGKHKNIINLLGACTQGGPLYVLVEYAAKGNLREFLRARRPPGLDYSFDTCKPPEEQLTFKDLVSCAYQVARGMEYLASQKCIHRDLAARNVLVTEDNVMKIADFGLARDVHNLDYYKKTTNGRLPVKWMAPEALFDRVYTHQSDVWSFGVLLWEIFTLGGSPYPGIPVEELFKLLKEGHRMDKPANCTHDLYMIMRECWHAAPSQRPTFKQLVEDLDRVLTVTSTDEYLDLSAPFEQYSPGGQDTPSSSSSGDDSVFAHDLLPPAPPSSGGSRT
Outline: as §4

FGFR1 = FGFR1 (Homo sapiens (Human), UniProt P11362); experiment: as above
Sequence of FGFR1 (P11362 22-822): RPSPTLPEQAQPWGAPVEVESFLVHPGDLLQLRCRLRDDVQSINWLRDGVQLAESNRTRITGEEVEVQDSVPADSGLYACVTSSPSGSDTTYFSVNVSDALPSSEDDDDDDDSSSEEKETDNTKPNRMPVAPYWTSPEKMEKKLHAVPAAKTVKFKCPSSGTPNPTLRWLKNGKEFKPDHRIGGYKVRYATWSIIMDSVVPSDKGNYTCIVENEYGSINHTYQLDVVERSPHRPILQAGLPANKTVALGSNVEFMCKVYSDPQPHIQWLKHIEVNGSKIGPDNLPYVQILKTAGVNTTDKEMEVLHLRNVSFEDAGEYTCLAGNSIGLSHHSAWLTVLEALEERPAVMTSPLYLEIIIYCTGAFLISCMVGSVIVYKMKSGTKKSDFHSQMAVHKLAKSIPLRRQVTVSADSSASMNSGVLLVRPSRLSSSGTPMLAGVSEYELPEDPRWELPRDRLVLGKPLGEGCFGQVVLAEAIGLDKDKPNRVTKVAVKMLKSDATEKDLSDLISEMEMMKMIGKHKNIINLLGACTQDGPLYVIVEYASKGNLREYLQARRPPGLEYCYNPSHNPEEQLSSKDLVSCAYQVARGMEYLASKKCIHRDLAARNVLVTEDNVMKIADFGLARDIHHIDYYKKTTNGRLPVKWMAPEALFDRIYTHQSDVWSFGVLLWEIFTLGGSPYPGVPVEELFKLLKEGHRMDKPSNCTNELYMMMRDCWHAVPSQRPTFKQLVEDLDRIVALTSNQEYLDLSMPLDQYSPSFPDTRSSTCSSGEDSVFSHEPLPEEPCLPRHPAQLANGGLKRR
Outline: as §4

FGFR4 = FGFR4 (Homo sapiens (Human), UniProt P22455); experiment: as above
Sequence of FGFR4 (P22455 22-802): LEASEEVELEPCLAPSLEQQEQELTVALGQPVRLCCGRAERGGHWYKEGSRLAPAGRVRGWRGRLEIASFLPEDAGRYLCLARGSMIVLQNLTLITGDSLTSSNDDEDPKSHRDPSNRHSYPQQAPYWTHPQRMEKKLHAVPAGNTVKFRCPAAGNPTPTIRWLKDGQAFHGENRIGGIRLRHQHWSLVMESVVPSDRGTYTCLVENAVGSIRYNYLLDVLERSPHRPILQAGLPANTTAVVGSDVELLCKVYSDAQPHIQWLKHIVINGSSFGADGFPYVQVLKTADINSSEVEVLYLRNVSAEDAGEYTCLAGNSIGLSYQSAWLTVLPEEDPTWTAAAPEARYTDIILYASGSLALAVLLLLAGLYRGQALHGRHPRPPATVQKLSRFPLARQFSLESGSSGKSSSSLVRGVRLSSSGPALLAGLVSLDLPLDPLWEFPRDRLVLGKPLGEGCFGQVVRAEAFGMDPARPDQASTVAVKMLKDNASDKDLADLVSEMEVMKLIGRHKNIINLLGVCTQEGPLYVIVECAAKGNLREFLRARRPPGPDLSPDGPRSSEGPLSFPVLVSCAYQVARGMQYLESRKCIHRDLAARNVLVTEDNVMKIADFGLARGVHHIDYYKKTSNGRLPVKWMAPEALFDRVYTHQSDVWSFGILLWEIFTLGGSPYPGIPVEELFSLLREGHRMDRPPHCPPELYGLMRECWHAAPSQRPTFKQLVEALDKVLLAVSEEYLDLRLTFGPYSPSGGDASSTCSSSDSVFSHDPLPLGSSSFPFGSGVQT
Outline: as §4

FGFR3 (V555M) = FGFR3 (V555M) (Homo sapiens (Human), UniProt P22607, V555M); experiment: as above; conditions: V555M mutant
Sequence of FGFR3 (V555M) (P22607 23-806 V555M): as the sequence (P22607 23-806) above, with V533M counted along it
Outline: as §4

[1] = target: FGFR3-BAIAP2L1 Ba/F3 cells (Homo sapiens, UniProt P22607); experiment: Ba/F3 cell viability assay (CellTiter-Glo 2.0), FGFR3-BAIAP2L1 Ba/F3; assay type: cell-based; conditions: for Ba/F3 FGFR1/FGFR3 Selectivity: FGFR3 > FGFR1 selectivity ratio in Ba/F3 FGFR fusion cell based assays; for IC50: read-out: Ba/F3 Cells FGFR3 (IC50 nM), FGFR3-BAIAP2L1 Ba/F3 cells, 48 hours, Cell Titer Glo 2.0
Sequence of FGFR3-BAIAP2L1 Ba/F3 cells (P22607 23-806 limits assumed, change not shown): as the sequence (P22607 23-806) above
Text: as §1, §2, §3

Sequence of FGFR1-BCR Ba/F3 cells (P11362 22-822 limits assumed, change not shown): as the sequence (P11362 22-822) above

Compound	IC50 (FGFR1-BCR Ba/F3 cells) [nM]	Kd (FGFR2) [nM]	Kd (FGFR3) [nM]	Kd (FGFR1) [nM]	Kd (FGFR4) [nM]	Kd (FGFR3 (V555M)) [nM]	Ba/F3 FGFR1/FGFR3 Selectivity [1]	IC50 [1] [nM]
C[C@@H](Oc1ccc2[nH]nc(-c3ccc(C4CCN(S(C)(=O)=O)CC4)nc3)c2c1)c1c(Cl)cncc1Cl [Example 70, 5-[(1R)-1-(3,5-dichloro-4-pyridyl)ethoxy]-3-[6-(1-methylsulfonyl-4-piperidyl)-3-pyridyl]-1H-indazole]	20 to 100	1 to 20	1 to 20	1 to 20	1 to 20	1 to 20	20	1 to 20
C[C@@H](Oc1ccc2[nH]nc(-c3ccc(C4CCN(C(=O)N(C)C)CC4)nc3)c2c1)c1c(Cl)cncc1Cl [Example 71, 4-[5-[5-[(1R)-1-(3,5-dichloro-4-pyridyl)ethoxy]-1H-indazol-3-yl]-2-pyridyl]-N,N-dimethyl-piperidine-1-carboxamide]	20 to 100	1 to 20	1 to 20	1 to 20	1 to 20	1 to 20	15	1 to 20
C[C@@H](Oc1ccc2[nH]nc(-c3ccc(C4CCN(C(N)=O)CC4)nc3)c2c1)c1c(Cl)cncc1Cl [Example 72, 4-[5-[5-[(1R)-1-(3,5-dichloro-4-pyridyl)ethoxy]-1H-indazol-3-yl]-2-pyridyl]piperidine-1-carboxamide]	20 to 100	1 to 20	1 to 20	1 to 20	1 to 20	1 to 20	15	1 to 20
C[C@@H](Oc1ccc2[nH]nc(-c3ccc(N4CC5(CNC5)OC4=O)nc3)c2c1)c1c(Cl)cncc1Cl [Example 73, 7-[5-[5-[(1R)-1-(3,5-dichloro-4-pyridyl)ethoxy]-1H-indazol-3-yl]-2-pyridyl]-5-oxa-2,7-diazaspiro[3.4]octan-6-one]	100 to 300	20 to 100	1 to 20	1 to 20	1 to 20	1 to 20	11	20 to 100
C[C@@H](Oc1ccc2[nH]nc(-c3ccc(N4CC5(CCNCC5)OC4=O)nc3)c2c1)c1c(Cl)cncc1Cl [Example 74, 3-[5-[5-[(1R)-1-(3,5-dichloro-4-pyridyl)ethoxy]-1H-indazol-3-yl]-2-pyridyl]-1-oxa-3,8-diazaspiro[4.5]decan-2-one]	100 to 300	1 to 20	1 to 20	1 to 20	1 to 20	1 to 20	6	20 to 100
C[C@@H](Oc1ccc2[nH]nc(-c3ccc(N4CC5(CCN(C)CC5)OC4=O)nc3)c2c1)c1c(Cl)cncc1Cl [Example 75, 3-[5-[5-[(1R)-1-(3,5-dichloro-4-pyridyl)ethoxy]-1H-indazol-3-yl]-2-pyridyl]-8-methyl-1-oxa-3,8-diazaspiro[4.5]decan-2-one]	100 to 300	1 to 20	1 to 20	1 to 20	1 to 20	1 to 20	14	1 to 20
C[C@@H](Oc1ccc2[nH]nc(-c3ccc(N4CCC5(CC4)CCS(=O)(=O)C5)nc3)c2c1)c1c(Cl)cncc1Cl [Example 78, 8-[5-[5-[(1R)-1-(3,5-dichloro-4-pyridyl)ethoxy]-1H-indazol-3-yl]-2-pyridyl]-2λ^6-thia-8-azaspiro[4.5]decane 2,2-dioxide]	20 to 100	1 to 20	1 to 20	1 to 20	1 to 20	1 to 20	13	1 to 20
C[C@@H](Oc1ccc2[nH]nc(-c3cnn(C4CCN(CCO)CC4)c3)c2c1)c1c(Cl)cncc1Cl [Example 79, 2-[4-[4-[5-[(1R)-1-(3,5-dichloro-4-pyridyl)ethoxy]-1H-indazol-3-yl]pyrazol-1-yl]-1-piperidyl]ethanol]	20 to 100	1 to 20	1 to 20	1 to 20	1 to 20	1 to 20	14	1 to 20
Cc1ncc(Cl)c([C@@H](C)Oc2ccc3[nH]nc(-c4cnn(C5CCN(C)CC5)c4)c3c2)c1Cl [Example 80, 5-[(1R)-1-(3,5-dichloro-2-methyl-4-pyridyl)ethoxy]-3-[1-(1-methyl-4-piperidyl)pyrazol-4-yl]-1H-indazole]	100 to 300	1 to 20	1 to 20	1 to 20	100 to 300	1 to 20	17	1 to 20
C[C@@H](Oc1ccc2[nH]nc(-c3cnn(C4CCN(C(=O)CCN(C)C)CC4)c3)c2c1)c1c(Cl)cncc1Cl [Example 82, 1-[4-[4-[5-[(1R)-1-(3,5-dichloro-4-pyridyl)ethoxy]-1H-indazol-3-yl]pyrazol-1-yl]-1-piperidyl]-3-(dimethylamino)propan-1-one]	100 to 300	1 to 20	1 to 20	1 to 20	20 to 100	1 to 20	11	1 to 20
C[C@@H](Oc1ccc2[nH]nc(-c3cnn(C4CCN(C5CCC5)CC4)c3)c2c1)c1c(Cl)cncc1Cl [Example 90, 3-[1-(1-cyclobutyl-4-piperidyl)pyrazol-4-yl]-5-[(1R)-1-(3,5-dichloro-4-pyridyl)ethoxy]-1H-indazole]	20 to 100	1 to 20	1 to 20	1 to 20	20 to 100	1 to 20	10	1 to 20
CCN1CC[C@@H](n2cc(-c3n[nH]c4ccc(O[C@H](C)c5c(Cl)cncc5Cl)cc34)cn2)C1 [Example 91, 5-[(1R)-1-(3,5-dichloro-4-pyridyl)ethoxy]-3-[1-[(3R)-1-ethylpyrrolidin-3-yl]pyrazol-4-yl]-1H-indazole]	100 to 300	1 to 20	1 to 20	1 to 20	20 to 100	1 to 20	8	1 to 20
Cc1ncc(Cl)c([C@@H](C)Oc2ccc3[nH]nc(-c4cnn(C5CCNCC5)c4)c3c2)c1Cl [Example 92, 5-[(1R)-1-(3,5-dichloro-2-methyl-4-pyridyl)ethoxy]-3-[1-(4-piperidyl)pyrazol-4-yl]-1H-indazole]	100 to 300	1 to 20	1 to 20	1 to 20	20 to 100	1 to 20	18	20 to 100
C[C@@H](Oc1ccc2[nH]nc(-c3ccc(N4CC5(CCN5S(C)(=O)=O)C4)nc3)c2c1)c1c(Cl)cncc1Cl [Example 100, 5-[(1R)-1-(3,5-dichloro-4-pyridyl)ethoxy]-3-[6-(1-methylsulfonyl-1,6-diazaspiro[3.3]heptan-6-yl)-3-pyridyl]-1H-indazole]	> 300	1 to 20	1 to 20	1 to 20	1 to 20	1 to 20	22	1 to 20
Cc1ncc(Cl)c([C@@H](C)Oc2ccc3[nH]nc(-c4cnn(C5CCOCC5)c4)c3c2)c1Cl [Example 104, 5-[(1R)-1-(3,5-dichloro-2-methyl-4-pyridyl)ethoxy]-3-(1-tetrahydropyran-4-ylpyrazol-4-yl)-1H-indazole]	> 300	1 to 20	1 to 20	20 to 100	20 to 100	1 to 20	10	20 to 100
CC(Oc1ccc2[nH]nc(-c3cnn(C4CCN(C5COC5)CC4)c3)c2c1)c1c(Cl)ccnc1Cl (centres unmarked) [Example 108, 5-[1-(2,4-dichloro-3-pyridyl)ethoxy]-3-[1-[1-(oxetan-3-yl)-4-piperidyl]pyrazol-4-yl]-1H-indazole]	100 to 300	1 to 20	1 to 20	20 to 100	20 to 100	1 to 20	14	1 to 20
